Columns and labels:
[1] = system: Tyrosine-protein kinase ABL1 (Homo sapiens), P00519 [Q252H]; assay: Binding affinity to human non-phosphorylated ABL1 Q252H mutant (S229 to K512 residues) expressed in mammalian expression system assessed as residual binding level at 10 uM by Kinomescan method relative to control
[2] = biological target: Mitogen-activated protein kinase kinase kinase 6 (Homo sapiens) (UniProt O95382); assay: Binding affinity to wild-type human partial length ASK2 (M278 to R972 residues) expressed in mammalian expression system assessed as residual binding level at 10 uM by Kinomescan method relative to control
[3] = biological target: Tyrosine-protein kinase BTK (Homo sapiens) (UniProt Q06187); assay: Binding affinity to wild-type human full length BTK (M1 to S659 residues) expressed in mammalian expression system assessed as residual binding level at 10 uM by Kinomescan method relative to control
[4] = biological target: Mitotic checkpoint serine/threonine-protein kinase BUB1 (Homo sapiens) (UniProt O43683); assay: Binding affinity to wild-type human partial length BUB1 (Q724 to K1085 residues) expressed in mammalian expression system assessed as residual binding level at 10 uM by Kinomescan method relative to control
[5] = biological target: Calcium/calmodulin-dependent protein kinase type II subunit beta (Homo sapiens) (UniProt Q13554); assay: Binding affinity to wild-type human partial length CAMK2B (M1 to Q380 residues) expressed in bacterial expression system assessed as residual binding level at 10 uM by Kinomescan method relative to control
[6] = biological target: Calcium/calmodulin-dependent protein kinase type II subunit gamma (Homo sapiens) (UniProt Q13555); assay: Binding affinity to wild-type human partial length CAMK2G (R9 to A303 residues) expressed in bacterial expression system assessed as residual binding level at 10 uM by Kinomescan method relative to control
[7] = biological target: Calcium/calmodulin-dependent protein kinase kinase 1 (Homo sapiens) (UniProt Q8N5S9); assay: Binding affinity to wild-type human partial length CAMKK1 (R65 to E414 residues) expressed in bacterial expression system assessed as residual binding level at 10 uM by Kinomescan method relative to control
[8] = biological target: Cyclin-dependent kinase-like 3 (Homo sapiens) (UniProt Q8IVW4); assay: Binding affinity to wild-type human partial length CDKL3 (M1 to D327 residues) expressed in bacterial expression system assessed as residual binding level at 10 uM by Kinomescan method relative to control
[9] = biological target: Serine/threonine-protein kinase MRCK gamma (Homo sapiens) (UniProt Q6DT37); assay: Binding affinity to wild-type human partial length DMPK2 (S46 to S408 residues) expressed in bacterial expression system assessed as residual binding level at 10 uM by Kinomescan method relative to control
[10] = system: Epidermal growth factor receptor (Homo sapiens), P00533 [G719C]; assay: Binding affinity to human partial length EGFR G719C mutant (R669 to V1011 residues) expressed in bacterial expression system assessed as residual binding level at 10 uM by Kinomescan method relative to control
[11] = biological target: Ephrin type-A receptor 6 (Homo sapiens) (UniProt Q9UF33); assay: Binding affinity to wild-type human partial length EPHA6 (Y700 to E1046 residues) expressed in bacterial expression system assessed as residual binding level at 10 uM by Kinomescan method relative to control
[12] = biological target: Receptor-type tyrosine-protein kinase FLT3 (Homo sapiens) (UniProt P36888); assay: Binding affinity to wild-type human partial length FLT3 (V592 to Y969 residues) expressed in bacterial expression system assessed as residual binding level at 10 uM by Kinomescan method relative to control
[13] = system: Receptor-type tyrosine-protein kinase FLT3 (Homo sapiens), P36888 [UNDEFINED MUTATION]; assay: Binding affinity to human partial length FLT3 ITD/F691L double mutant expressed in bacterial expression system assessed as residual binding level at 10 uM by Kinomescan method relative to control
[14] = biological target: Mitogen-activated protein kinase kinase kinase kinase 1 (Homo sapiens) (UniProt Q92918); assay: Binding affinity to wild-type human full length HPK1 (M1 to R799 residues) expressed in bacterial expression system assessed as residual binding level at 10 uM by Kinomescan method relative to control
[15] = biological target: Inhibitor of nuclear factor kappa-B kinase subunit epsilon (Homo sapiens) (UniProt Q14164); assay: Binding affinity to wild-type human full length IKK-epsilon (M1 to V716 residues) expressed in mammalian expression system assessed as residual binding level at 10 uM by Kinomescan method relative to control
[16] = biological target: Tyrosine-protein kinase ITK/TSK (Homo sapiens) (UniProt Q08881); assay: Binding affinity to wild-type human partial length ITK (R335 to L620 residues) expressed in bacterial expression system assessed as residual binding level at 10 uM by Kinomescan method relative to control
[17] = biological target: Mitogen-activated protein kinase kinase kinase kinase 4 (Homo sapiens) (UniProt O95819); assay: Binding affinity to wild-type human partial length MAP4K4 (M1 to R310 residues) expressed in bacterial expression system assessed as residual binding level at 10 uM by Kinomescan method relative to control
[18] = biological target: Serine/threonine-protein kinase MRCK beta (Homo sapiens) (UniProt Q9Y5S2); assay: Binding affinity to wild-type human partial length MRCKB (L56 to S417 residues) expressed in bacterial expression system assessed as residual binding level at 10 uM by Kinomescan method relative to control
[19] = biological target: Serine/threonine-protein kinase PAK 6 (Homo sapiens) (UniProt Q9NQU5); assay: Binding affinity to wild-type human partial length PAK6 (N298 to C681 residues) expressed in bacterial expression system assessed as residual binding level at 10 uM by Kinomescan method relative to control
[20] = biological target: Cyclin-dependent kinase 17 (Homo sapiens) (UniProt Q00537); assay: Binding affinity to wild-type human full length PCTK2 (M1 to F523 residues) expressed in bacterial expression system assessed as residual binding level at 10 uM by Kinomescan method relative to control
[21] = biological target: Platelet-derived growth factor receptor beta (Homo sapiens) (UniProt P09619); assay: Binding affinity to wild-type human partial length PDGFRB (V582 to Y1009 residues) expressed in bacterial expression system assessed as residual binding level at 10 uM by Kinomescan method relative to control
[22] = biological target: Serine/threonine-protein kinase PRP4 homolog (Homo sapiens) (UniProt Q13523); assay: Binding affinity to wild-type human partial length PRP4 (D657 to I1007 residues) expressed in bacterial expression system assessed as residual binding level at 10 uM by Kinomescan method relative to control
[23] = biological target: TGF-beta receptor type-2 (Homo sapiens) (UniProt P37173); assay: Binding affinity to wild-type human partial length TGFBR2 (I218 to K567 residues) expressed in bacterial expression system assessed as residual binding level at 10 uM by Kinomescan method relative to control
[24] = biological target: Serine/threonine-protein kinase 25 (Homo sapiens) (UniProt O00506); assay: Binding affinity to wild-type human partial length YSK1 (V14 to H295 residues) expressed in bacterial expression system assessed as residual binding level at 10 uM by Kinomescan method relative to control
[25] = system: MDR1; assay: in vitro; settings: dog, MDCK-MDR1
Description: Apparent permeability across basolateral to apical side in MDCK2-MDR1 cells by HPLC analysis

Sequence of Serine/threonine-protein kinase MRCK beta (Homo sapiens) (Q9Y5S2 whole entry, the tested form may be a part): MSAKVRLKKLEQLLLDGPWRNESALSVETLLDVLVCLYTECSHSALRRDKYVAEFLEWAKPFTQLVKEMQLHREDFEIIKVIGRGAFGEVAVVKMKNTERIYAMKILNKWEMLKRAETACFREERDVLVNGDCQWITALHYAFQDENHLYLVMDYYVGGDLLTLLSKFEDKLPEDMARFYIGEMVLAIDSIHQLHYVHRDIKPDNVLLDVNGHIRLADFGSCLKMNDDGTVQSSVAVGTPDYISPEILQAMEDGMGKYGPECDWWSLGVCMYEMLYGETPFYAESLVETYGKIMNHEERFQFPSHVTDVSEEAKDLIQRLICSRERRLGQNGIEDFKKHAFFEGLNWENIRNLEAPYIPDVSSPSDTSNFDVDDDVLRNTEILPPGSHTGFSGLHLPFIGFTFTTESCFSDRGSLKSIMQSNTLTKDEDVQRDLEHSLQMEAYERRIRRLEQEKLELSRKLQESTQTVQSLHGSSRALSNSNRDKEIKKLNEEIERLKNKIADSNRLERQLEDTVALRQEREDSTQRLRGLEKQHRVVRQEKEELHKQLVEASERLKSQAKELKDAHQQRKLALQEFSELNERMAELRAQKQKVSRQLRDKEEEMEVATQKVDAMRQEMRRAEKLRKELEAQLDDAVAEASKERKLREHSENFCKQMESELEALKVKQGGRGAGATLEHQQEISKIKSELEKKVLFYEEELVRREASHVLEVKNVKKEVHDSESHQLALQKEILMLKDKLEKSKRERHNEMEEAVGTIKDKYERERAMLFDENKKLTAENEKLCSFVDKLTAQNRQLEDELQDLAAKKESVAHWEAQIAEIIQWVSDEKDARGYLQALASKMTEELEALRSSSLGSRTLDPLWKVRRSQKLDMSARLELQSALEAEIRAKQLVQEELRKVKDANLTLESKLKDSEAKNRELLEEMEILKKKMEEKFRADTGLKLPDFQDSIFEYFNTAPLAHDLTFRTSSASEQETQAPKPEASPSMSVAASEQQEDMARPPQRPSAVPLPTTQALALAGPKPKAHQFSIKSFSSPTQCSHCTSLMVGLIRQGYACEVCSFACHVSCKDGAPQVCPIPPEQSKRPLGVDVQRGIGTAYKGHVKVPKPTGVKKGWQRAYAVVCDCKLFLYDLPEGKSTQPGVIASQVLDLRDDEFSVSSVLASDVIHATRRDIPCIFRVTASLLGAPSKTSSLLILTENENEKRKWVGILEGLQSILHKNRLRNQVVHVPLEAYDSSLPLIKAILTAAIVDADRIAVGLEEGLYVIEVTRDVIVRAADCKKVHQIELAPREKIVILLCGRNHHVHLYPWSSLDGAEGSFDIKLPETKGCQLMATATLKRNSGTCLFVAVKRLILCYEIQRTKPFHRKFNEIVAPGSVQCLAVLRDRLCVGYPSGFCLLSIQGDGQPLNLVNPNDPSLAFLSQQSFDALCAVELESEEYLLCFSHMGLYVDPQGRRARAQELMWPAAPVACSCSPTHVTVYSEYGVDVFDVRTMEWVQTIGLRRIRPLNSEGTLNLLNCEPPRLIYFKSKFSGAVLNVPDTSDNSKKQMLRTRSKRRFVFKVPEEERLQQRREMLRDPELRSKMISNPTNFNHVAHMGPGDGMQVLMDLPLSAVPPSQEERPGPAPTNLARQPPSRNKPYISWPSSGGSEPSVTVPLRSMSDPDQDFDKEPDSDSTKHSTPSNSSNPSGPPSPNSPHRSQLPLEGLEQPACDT
Sequence of Mitotic checkpoint serine/threonine-protein kinase BUB1 (Homo sapiens) (O43683 whole entry, looked up, the tested form may be a part): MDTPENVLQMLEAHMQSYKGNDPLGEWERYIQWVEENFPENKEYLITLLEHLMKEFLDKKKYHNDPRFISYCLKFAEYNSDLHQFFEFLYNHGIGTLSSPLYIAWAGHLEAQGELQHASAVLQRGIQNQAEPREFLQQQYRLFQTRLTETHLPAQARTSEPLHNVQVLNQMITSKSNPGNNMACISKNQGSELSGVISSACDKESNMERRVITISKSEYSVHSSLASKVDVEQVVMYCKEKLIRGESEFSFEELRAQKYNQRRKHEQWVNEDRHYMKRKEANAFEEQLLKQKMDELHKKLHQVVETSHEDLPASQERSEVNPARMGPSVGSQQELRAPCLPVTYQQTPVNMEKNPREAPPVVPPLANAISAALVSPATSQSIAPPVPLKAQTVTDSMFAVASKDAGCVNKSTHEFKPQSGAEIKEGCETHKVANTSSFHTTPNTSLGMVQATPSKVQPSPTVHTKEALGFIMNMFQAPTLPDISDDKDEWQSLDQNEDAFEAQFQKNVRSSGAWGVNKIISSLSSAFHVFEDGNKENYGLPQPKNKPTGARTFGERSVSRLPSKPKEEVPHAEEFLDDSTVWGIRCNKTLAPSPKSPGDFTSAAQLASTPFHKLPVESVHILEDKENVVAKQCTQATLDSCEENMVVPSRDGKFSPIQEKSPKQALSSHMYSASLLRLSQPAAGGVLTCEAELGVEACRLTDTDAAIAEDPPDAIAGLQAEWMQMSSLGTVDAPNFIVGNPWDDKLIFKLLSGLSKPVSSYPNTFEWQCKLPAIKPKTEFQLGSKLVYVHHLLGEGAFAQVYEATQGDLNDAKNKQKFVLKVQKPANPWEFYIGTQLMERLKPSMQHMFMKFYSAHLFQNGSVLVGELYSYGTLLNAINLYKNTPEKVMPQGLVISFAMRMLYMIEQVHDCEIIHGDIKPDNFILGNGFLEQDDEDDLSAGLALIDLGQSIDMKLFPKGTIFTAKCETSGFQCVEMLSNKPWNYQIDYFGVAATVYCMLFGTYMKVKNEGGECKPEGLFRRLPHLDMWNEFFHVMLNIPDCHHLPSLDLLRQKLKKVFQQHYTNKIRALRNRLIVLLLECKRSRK
Sequence of Serine/threonine-protein kinase PRP4 homolog (Homo sapiens) (Q13523 whole entry, the tested form may be a part): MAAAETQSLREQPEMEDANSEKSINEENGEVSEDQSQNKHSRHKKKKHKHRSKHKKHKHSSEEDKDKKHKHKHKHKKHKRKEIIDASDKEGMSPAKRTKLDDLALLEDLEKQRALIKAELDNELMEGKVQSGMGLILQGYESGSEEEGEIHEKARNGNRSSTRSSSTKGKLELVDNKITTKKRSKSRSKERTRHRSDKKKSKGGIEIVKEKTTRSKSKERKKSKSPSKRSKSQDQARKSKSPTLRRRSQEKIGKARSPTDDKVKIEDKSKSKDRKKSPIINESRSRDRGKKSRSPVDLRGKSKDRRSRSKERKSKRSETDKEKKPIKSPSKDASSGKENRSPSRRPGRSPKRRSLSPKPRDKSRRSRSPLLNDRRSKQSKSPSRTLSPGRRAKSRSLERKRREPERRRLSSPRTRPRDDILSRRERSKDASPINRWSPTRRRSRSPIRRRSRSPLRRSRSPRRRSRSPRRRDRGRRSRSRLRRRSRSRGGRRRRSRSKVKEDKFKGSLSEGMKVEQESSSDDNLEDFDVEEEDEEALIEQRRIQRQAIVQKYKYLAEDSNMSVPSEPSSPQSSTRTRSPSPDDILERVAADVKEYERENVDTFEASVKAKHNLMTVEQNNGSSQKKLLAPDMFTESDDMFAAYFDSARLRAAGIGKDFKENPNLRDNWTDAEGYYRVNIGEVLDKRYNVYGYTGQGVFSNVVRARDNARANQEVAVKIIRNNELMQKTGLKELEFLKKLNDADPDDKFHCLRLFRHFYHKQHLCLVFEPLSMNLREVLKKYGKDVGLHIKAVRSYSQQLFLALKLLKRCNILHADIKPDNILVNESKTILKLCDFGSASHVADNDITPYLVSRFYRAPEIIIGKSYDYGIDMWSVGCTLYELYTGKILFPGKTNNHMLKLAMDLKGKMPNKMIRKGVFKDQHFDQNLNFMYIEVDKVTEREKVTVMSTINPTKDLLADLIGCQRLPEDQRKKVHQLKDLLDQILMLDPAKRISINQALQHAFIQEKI
Sequence of Cyclin-dependent kinase-like 3 (Homo sapiens) (Q8IVW4 whole entry, looked up, the tested form may be a part): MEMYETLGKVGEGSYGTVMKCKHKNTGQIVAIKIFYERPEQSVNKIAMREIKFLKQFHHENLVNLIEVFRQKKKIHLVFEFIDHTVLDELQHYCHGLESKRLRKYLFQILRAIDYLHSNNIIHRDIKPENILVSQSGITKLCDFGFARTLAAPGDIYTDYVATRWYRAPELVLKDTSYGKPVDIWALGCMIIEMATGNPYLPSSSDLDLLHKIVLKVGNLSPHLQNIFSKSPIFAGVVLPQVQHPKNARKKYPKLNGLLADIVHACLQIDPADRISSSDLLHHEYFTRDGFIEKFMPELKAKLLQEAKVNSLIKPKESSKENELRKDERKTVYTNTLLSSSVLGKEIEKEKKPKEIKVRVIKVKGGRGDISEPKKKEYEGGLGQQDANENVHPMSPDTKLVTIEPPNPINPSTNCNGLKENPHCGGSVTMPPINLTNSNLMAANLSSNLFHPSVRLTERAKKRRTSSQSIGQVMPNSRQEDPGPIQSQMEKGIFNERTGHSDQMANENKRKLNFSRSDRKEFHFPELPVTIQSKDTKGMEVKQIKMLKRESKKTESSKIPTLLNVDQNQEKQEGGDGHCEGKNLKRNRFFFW
Sequence of Calcium/calmodulin-dependent protein kinase type II subunit gamma (Homo sapiens) (Q13555 whole entry, the tested form may be a part): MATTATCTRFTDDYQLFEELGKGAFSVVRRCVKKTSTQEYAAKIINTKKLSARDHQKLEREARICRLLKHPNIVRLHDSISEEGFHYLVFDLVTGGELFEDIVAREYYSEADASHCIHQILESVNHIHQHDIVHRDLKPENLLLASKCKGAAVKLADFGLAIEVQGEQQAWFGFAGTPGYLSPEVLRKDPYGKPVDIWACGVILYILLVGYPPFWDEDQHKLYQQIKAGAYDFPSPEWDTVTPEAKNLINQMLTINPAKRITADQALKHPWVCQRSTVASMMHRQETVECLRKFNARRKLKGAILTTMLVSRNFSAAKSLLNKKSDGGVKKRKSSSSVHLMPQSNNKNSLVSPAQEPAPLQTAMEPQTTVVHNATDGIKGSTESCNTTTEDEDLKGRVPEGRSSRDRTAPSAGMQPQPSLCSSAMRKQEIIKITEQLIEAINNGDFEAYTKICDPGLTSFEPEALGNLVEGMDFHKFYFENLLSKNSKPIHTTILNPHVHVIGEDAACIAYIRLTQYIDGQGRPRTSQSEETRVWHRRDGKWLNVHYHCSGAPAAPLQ

For `O=C(Nc1cc(-c2cn(CCNc3c4c(nc5ccccc35)CCCC4)nn2)ccn1)Nc1cccc2c1C1CCCCN1C2=O` (racemic), the Activity [1] was 4.5%, the Activity [2] was 87% and the Activity [3] was 100%. For the same molecule, the Activity [4] was 6.4%, the Activity [5] was 84% and the Activity [6] was 64%. For the same molecule, the Activity [7] was 23%, the Activity [8] was 0% and the Activity [9] was 100%. It also gave an Activity [10] of 78%, an Activity [11] of 97% and an Activity [12] of 0.55%. The Activity [13] was 0.25%, the Activity [14] was 12% and the Activity [15] was 52%. It also gave an Activity [16] of 82%, an Activity [17] of 97% and an Activity [18] of 99%. It also gave an Activity [19] of 66%, an Activity [20] of 4.2% and an Activity [21] of 2.3%. It also gave an Activity [22] of 15%, an Activity [23] of 19% and an Activity [24] of 54%. For the same molecule, the Papp B→A [25] was 16.8 ×10⁻⁶ cm/s.

— ChEMBL document CHEMBL4390652, “Design, biological evaluation and X-ray crystallography of nanomolar multifunctional ligands targeting simultaneously acetylcholinesterase and glycogen synthase kinase-3” (Eur J Med Chem, 2019)
